This is an account of results in PubChem BioAssay (NCI).

Test systems include RPMI-8226 leukemia; SK-MEL-2 melanoma; SNB-19 CNS; SW-620 colon; U251 CNS; UO-31 renal; A498 renal.
Assay in all cases: NCI anticancer screen, dose series, 48 h

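Briefly, cells in 96-well plates were exposed to five compound concentrations for 48 h, and endpoints were estimated by linear interpolation. Abbreviation: GI50, concentration required for 50% inhibition of growth. At the TGI there is no net growth.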

As to `COc1ccc(N2C(=O)c3cc([N+](=O)[O-])cnc3S2(=O)=O)cc1`, the TGI in the assay on RPMI-8226 leukemia, in the assay on SK-MEL-2 melanoma, with SNB-19 CNS, in the assay with SW-620 colon, with U251 CNS and in the assay with UO-31 renal was above 100 µM each time.

`COc1cc([C@@H]2c3cc4c(cc3[C@H](OC3OC5COC(c6ccco6)OC5C(O)C3O)C3COC(=O)[C@@H]32)OCO4)cc(OC)c1OC` (stereo partly drawn): the TGI was above 100 µM with RPMI-8226 leukemia; above 69.8 µM in the assay with SK-MEL-2 melanoma; above 100 µM in the assay with SNB-19 CNS; above 100 µM in the assay on SW-620 colon; above 100 µM in the assay with U251 CNS; above 100 µM with UO-31 renal.

For the molecule `CC(NCc1c(O)ccc2c(-c3ccccc3)cc(=O)oc12)C(=O)O` (stereo not drawn), the TGI in the assay on RPMI-8226 leukemia, in the assay on SK-MEL-2 melanoma, with SNB-19 CNS, in the assay on SW-620 colon, in the assay with U251 CNS and in the assay on UO-31 renal was above 100 µM each time.

With `CC(=O)c1ccc(Br)cc1NC1=CC(=O)c2ncccc2C1=O`, the TGI with A498 renal came out at 5.85 µM; with RPMI-8226 leukemia, 8.95 µM; in the assay with SK-MEL-2 melanoma, 16.9 µM; in the assay with SNB-19 CNS it was 11.3 µM; in the assay with U251 CNS, 19.7 µM; in the assay with UO-31 renal, 15.8 µM.

For the molecule `Clc1ccc(Cc2nc3ccccc3o2)cc1`, the TGI in the assay with RPMI-8226 leukemia, with SK-MEL-2 melanoma, with SNB-19 CNS, in the assay with SW-620 colon, with U251 CNS and in the assay with UO-31 renal was above 100 µM each time.

As for `O=C(c1ccc2ccccc2c1)C1(I)S(=O)(=O)OCCOS1(=O)=O`, the TGI in the assay on RPMI-8226 leukemia, with SK-MEL-2 melanoma, in the assay with SNB-19 CNS, with U251 CNS and in the assay on UO-31 renal was above 100 µM each time.

For the molecule `CSC(=S)CC(O)[C@@H]1CC2c3ccccc3C1c1ccccc12` (stereo partly drawn), the TGI in the assay on A498 renal is 37.3 µM; with RPMI-8226 leukemia it was 20.7 µM; with SNB-19 CNS, 26.7 µM; with SW-620 colon, above 100 µM; in the assay on U251 CNS, 13 µM; in the assay with UO-31 renal, 25.6 µM.

In the case of `Cc1ccc(-c2n[nH]c(=O)n2/N=C\c2ccccc2O)cc1`, the TGI in the assay on RPMI-8226 leukemia, with SK-MEL-2 melanoma, in the assay on SNB-19 CNS, with SW-620 colon, in the assay on U251 CNS and in the assay with UO-31 renal was above 100 µM throughout.

As to `CC1(C)CNC(=O)C2(CCCO2)CNC(C)(C)CNC(=O)C2(CCCO2)CN1` (stereo not drawn), the TGI in the assay with RPMI-8226 leukemia, in the assay with SNB-19 CNS, in the assay with SW-620 colon and with U251 CNS was above 10 µM each time.

As for `Clc1ccc(OCC2NC3CCC2CC3)cn1` (stereo not drawn), the TGI in the assay on RPMI-8226 leukemia came to 32.5 µM; with SK-MEL-2 melanoma, 33.4 µM; in the assay on SNB-19 CNS, 77.1 µM; in the assay with SW-620 colon it was 57.1 µM; in the assay on U251 CNS, 30.7 µM; in the assay with UO-31 renal, 6.06 µM.

Take `Cc1nc2ccc(F)cc2c2c1CCS2`: the TGI in the assay with A498 renal, in the assay on RPMI-8226 leukemia, with SNB-19 CNS, with SW-620 colon, in the assay with U251 CNS and in the assay on UO-31 renal was above 100 µM in each case.

Regarding `N#CC(C#N)=c1c(=O)c2c3ccccc3cc3cccc1c32`, the TGI in the assay with A498 renal, in the assay with RPMI-8226 leukemia, in the assay with SK-MEL-2 melanoma, in the assay with SNB-19 CNS, with SW-620 colon and in the assay on U251 CNS was above 100 µM each time.

As for `CCC(C)N1CN(c2ccccc2)C2(CCN(CC3COc4ccccc4O3)CC2)C1=O` (stereo not drawn), the TGI in the assay with RPMI-8226 leukemia was 47.2 µM; in the assay with SNB-19 CNS, above 100 µM; in the assay on SW-620 colon, 58.8 µM; in the assay on U251 CNS, 38.7 µM; in the assay with UO-31 renal it was 30.2 µM.

In the case of `COC(=O)c1cc2ccc(O)c(O)c2cn1`, the TGI in the assay on RPMI-8226 leukemia is above 100 µM; in the assay with SK-MEL-2 melanoma, 34.3 µM; in the assay on SW-620 colon it was 32.4 µM; in the assay with U251 CNS it was 31.2 µM; in the assay on UO-31 renal, 32.2 µM. Also, in the assay on U251 CNS, the GI50 was 16.9 µM.

On to `COCN1C(=O)[C@@H]2CCCN2C(=O)c2cc(OC)c(Cc3ccccc3)cc21`, for which the TGI with A498 renal, in the assay on SK-MEL-2 melanoma, in the assay with SNB-19 CNS, in the assay with SW-620 colon, in the assay on U251 CNS and in the assay with UO-31 renal was above 100 µM in each case.

For `Cc1cccc(Nc2nc3ccccc3nc2NS(=O)(=O)c2ccc(N)cc2)c1`, the TGI is above 100 µM with RPMI-8226 leukemia; 81.5 µM with SK-MEL-2 melanoma; above 100 µM in the assay on SNB-19 CNS; above 100 µM in the assay with SW-620 colon; 53.8 µM in the assay on U251 CNS; 56.6 µM in the assay on UO-31 renal.

As for `CC(C)OC(=O)NCCn1cc(-c2ccccc2)nn1`, the TGI in the assay on RPMI-8226 leukemia, in the assay with SK-MEL-2 melanoma, with SNB-19 CNS and in the assay with U251 CNS was above 100 µM throughout.

Turning to `CC(=O)N1C=Cc2c(c(C)c3c([nH]c4ccccc43)c2C)C1`, the TGI in the assay with A498 renal was 28.3 µM; in the assay with RPMI-8226 leukemia it was 50.6 µM; with SK-MEL-2 melanoma it was 27.2 µM; in the assay on SNB-19 CNS, 28.7 µM; in the assay on SW-620 colon, 7.47 µM; in the assay with U251 CNS it was 19.4 µM.

For `COc1ccc2c(c1)/C(=C/c1c(O)[nH]c(=S)[nH]c1=O)C=N2`, the TGI in the assay on A498 renal, in the assay on SK-MEL-2 melanoma, in the assay with SNB-19 CNS, in the assay with SW-620 colon, in the assay with U251 CNS and in the assay on UO-31 renal was above 100 µM each time.

In the case of `O=C(O)c1cc(CCc2ccc(O)c(O)c2)ccc1O`, the TGI in the assay on A498 renal, in the assay on SK-MEL-2 melanoma, with SNB-19 CNS, in the assay with SW-620 colon, in the assay on U251 CNS and in the assay with UO-31 renal was above 100 µM throughout.

For the molecule `CCNC1=C(NC(=O)c2ccc(F)cc2)C(=O)c2ccccc2C1=O`, the TGI in the assay with RPMI-8226 leukemia, in the assay with SNB-19 CNS and in the assay with SW-620 colon was above 100 µM in each case.

Turning to `CCCN(CCC)C(=S)Sc1nc(C)nc(N2CCN(c3nc(C)nc(SC(=S)N(CCC)CCC)c3[N+](=O)[O-])CC2)c1[N+](=O)[O-]`, the TGI in the assay on RPMI-8226 leukemia was above 38.2 µM; in the assay on SK-MEL-2 melanoma it was 30.9 µM; with SNB-19 CNS, above 88.3 µM; with SW-620 colon, 17.1 µM; in the assay on U251 CNS, 16.7 µM; in the assay on UO-31 renal it was 37.4 µM.
